The text below walks through data of patent US20250304623A1, “PEPTIDES FOR INTRACELLULAR DELIVERY” (UNIVERSIDADE DE SANTIAGO DE COMPOSTELA, priority 2022, published 2025).

*: point of attachment. NHNH2 = NN*

Holding throughout (assay type): cell-based
Assay [1] deals with Hela cells. Briefly: RLuc pDNA delivery, robotic library screening, HeLa.
In assay [2] the test system is Hek293 cells. In words: RLuc pDNA delivery, robotic library screening, Hek293.
Assay [3] deals with HCT116 cells. In words: RLuc pDNA delivery, robotic library screening, HCT116.
Assay [4] deals with HepG2 cells expressing EGFP. Briefly: EGFP-targeting siRNA delivery (GFP silencing vs siMOCK), HepG2. The method, then:
To generate an EGFP expressing HeLa cell line, HeLa cells were transfected with EGFP pDNA (pEGFP-C1, Clontech) and stable transfectants were selected with 400 μg/mL of G-418 (Millipore). Green clones were selected by epifluorescence microscopy and tested for EGFP expression stability through several passages. […] All other EGFP-expressing cell lines were obtained in a similar way from parent non-EGFP-expressing cell lines.
Cells expressing EGFP were seeded in a 96 well plate the day before the experiment at a concentration of 50,000 cell/mL (100 μL/w) in DMEM+10% FBS+1% Gln-Abt. For robotic library screening, the delivery of an EGFP-targeting siRNA (EGFP: enhanced green fluorescent protein, Ambion® Silencer® GFP Positive Control siRNA (siGFP) (AM4626)) in six different cell lines expressing EGFP was performed. […] The mixture was shaken for 30 min at room temperature (rt) before the addition to the cells. The cell medium was aspirated, and cells were washed twice with PBS. Finally, 50 μL of the solution of siRNA/amphiphile complexes were added to the cells and incubated for 4 h. After transfection, the medium was replaced by 100 μL of fresh DMEM supplemented with 10% FBS. The fluorescence knockdown was quantified after 72 h in a plate reader, by comparison with cells transfected with a non-targeting siRNA control (siMOCK, Silencer™ Negative Control No. 1 siRNA (siMOCK) (AM4611)). EGFP knockdown was compared with Lipofectamine® RNAiMAX silencing efficiency (30-60% depending on cell line, defined with a numeric value in the below tables). All experiments were done in triplicate.
Tables 1-7: RLuc (pDNA) or EGFP (mRNA) expression levels were normalized to Lipofectamine reagents (value=1) and expressed as fold-times signal increase. In the case of siRNA, the siRNA treated cells fluorescence was compared with siMOCK control fluorescence, while Cas9-RNP mediated knockout was measured against the fluorescence of untreated cells. In both siRNA and Cas9-RNP, values are expressed as % fluorescence reduction. Amphiphile concentration was 5 μM in all cases. All experiments were performed in triplicate.
Tables 20-25 show the mean (triplicates) percentage of GFP-silencing, accounted by fluorescence intensity decrease relative to a non-targeting siRNA (siMOCK) control, measured after the transfection of siRNA by different amphiphiles at different concentrations in a variety of cell lines. Background values, accounted by untreated control cells, were subtracted for processing.

“Ac-RK*LRRLLRK*-NH2 (Ac-RK(NHNH2)LRRLLRK(NHNH2)-NH2; not fully specified; printed as Ac-RK*LRRLLRK*-NH2; also: K*2,K*9: native or modified lysine (ε-amide to a linker)) [Peptide 9.2]”: the “mean luminescent intensity (RLuc pDNA)” value in assay [1] (Hela, Dodecanal, 10 μM) is 13156 RLU; in assay [1] (Hela, Dodecanal, 15 μM), 11603 RLU; in assay [1] (Hela, Myristoleyl, 5 μM), −600 RLU; in assay [1] (Hela, Myristoleyl, 10 μM), −701 RLU; in assay [1] (Hela, Myristoleyl, 15 μM), −707 RLU; in assay [2] (Dodecanal, 10 μM), 32272 RLU. The “mean luminescent intensity (RLuc pDNA)” value is recorded as 18149 RLU in assay [2] (Dodecanal, 15 μM); 435 RLU in assay [2] (Oleyl, 15 μM); 819 RLU in assay [3] (Dodecanal, 10 μM); 1099 RLU in assay [3] (Dodecanal, 15 μM); −544 RLU in assay [3] (Myristoleyl, 5 μM); −623 RLU in assay [3] (Myristoleyl, 10 μM). Further, in assay [3] (Myristoleyl, 15 μM), the “mean luminescent intensity (RLuc pDNA)” value is given as −617 RLU. Besides, the “percentage of GFP-silencing relative to siMOCK” value in assay [4] (Myristoleyl, 5 μM) is reported as −22%; in assay [4] (Myristoleyl, 15 μM), −22%.

As to “Ac-RRHK*RLK*RRLK*RL-NH2 (Ac-RRHK(NHNH2)RLK(NHNH2)RRLK(NHNH2)RL-NH2; not fully specified; printed as Ac-RRHK*RLK*RRLK*RL-NH2; also: K*4,K*7,K*11: native or modified lysine (ε-amide to a linker)) [13(Leu-His)]”, the “mean luminescent intensity (RLuc pDNA)” value is listed as 2037 RLU in assay [1] (HeLa, Petroselinyl, 10 μM); 7216 RLU in assay [1] (Hela, Myristoleyl, 5 μM); 985 RLU in assay [1] (Hela, Myristoleyl, 10 μM); −373 RLU in assay [1] (Hela, Myristoleyl, 15 μM); 7854 RLU in assay [1] (Hela, Palmitoleyl, 5 μM); 3026 RLU in assay [1] (Hela, Palmitoleyl, 10 μM). Further, the “mean luminescent intensity (RLuc pDNA)” value in assay [1] (Hela, Petroselinyl, 5 μM) was 5527 RLU; in assay [2] (Dodecanal, 15 μM), 62749 RLU; in assay [2] (Palmitoleyl, 5 μM), 240629 RLU; in assay [2] (Palmitoleyl, 10 μM) it was 77558 RLU; in assay [2] (Palmitoleyl, 15 μM), 7639 RLU; in assay [2] (Petroselinyl, 5 μM), 213228 RLU. In addition, the “mean luminescent intensity (RLuc pDNA)” value in assay [2] (Petroselinyl, 10 μM) was 77709 RLU; in assay [2] (Petroselinyl, 15 μM), 6882 RLU; in assay [3] (Myristoleyl, 5 μM), 76409 RLU; in assay [3] (Myristoleyl, 15 μM), 429 RLU; in assay [3] (Palmitoleyl, 5 μM) it was 123206 RLU; in assay [3] (Petroselinyl, 5 μM), 116309 RLU. Further, the “mean luminescent intensity (RLuc pDNA)” value in assay [3] (Petroselinyl, 10 μM) turned out to be 33439 RLU; in assay [3] (Petroselinyl, 15 μM), 4972 RLU. The “percentage of GFP-silencing relative to siMOCK” value in assay [4] (Dodecanal, 15 μM) is 27%; in assay [4] (Myristoleyl, 10 μM) it was −3%; in assay [4] (Palmitoleyl, 10 μM), 12%; in assay [4] (Palmitoleyl, 15 μM), 25%; in assay [4] (Petroselinyl, 10 μM) it was 25%; in assay [4] (Petroselinyl, 15 μM) it was 6%.
